Source: patent publication US20250059188A1, “ARYLSULPHONAMIDE COMPOUNDS” (Anaxis Pharma Pty Ltd, priority 2021, published 2025)
Where two headings read alike, the source gives them in different places.

Experiments:
[1] = target: human MLKL (full length) (Homo sapiens (Human), UniProt Q8NB16); experiment: KINOMEscan binding assay, human MLKL (full length); settings: equilibrium dissociation constant
In short: (§1)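 Competition binding format with qPCR detection. Kinases, either phage-fused from E. coli lysates or HEK-293-derived with a DNA tag, bound ligand-coated beads in the presence of compound (11 points, 3-fold steps, 1% DMSO, top usually 30,000 nM). Kd from nonlinear Hill fitting with slope −1.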

[2] = target: mouse MLKL (full length) (Mus musculus (Mouse), UniProt Q9D2Y4); experiment: KINOMEscan binding assay, mouse MLKL (full length); settings: equilibrium dissociation constant
Method: Binding affinity of the test compounds for human MLKL (full length), mouse MLKL (full length), human RIPK1 and human RIPK3 was determined using the KINOMEscan™ technology developed by DiscoverX (USA; http://www.discoverx.com). The assay was conducted according to manufacturer instructions.
Kinase assays. For most assays, kinase-tagged T7 phage strains were grown in parallel in 24-well blocks in an E. coli host derived from the BL21 strain. E. coli were grown to log-phase and infected with T7 phage from a frozen stock (multiplicity of infection=0.4) and incubated with shaking at 32° C. until lysis (90-150 minutes). The lysates were centrifuged (6,000×g) and filtered (0.2 μm) to remove cell debris. The remaining kinases were produced in HEK-293 cells and subsequently tagged with DNA for qPCR detection. […] The liganded beads were blocked with excess biotin and washed with blocking buffer (SeaBlock (Pierce), 1% BSA, 0.05% Tween 20, 1 mM DTT) to remove unbound ligand and to reduce non-specific phage binding. […] All reactions were performed in polypropylene 384-well plates in a final volume of 20 μL. […] The kinase concentration in the eluates was measured by qPCR.
An 11-point 3-fold serial dilution of each test compound was prepared in 100% DMSO at 100× final test concentration and subsequently diluted to 1× in the assay (final DMSO concentration=1%). Most Kos were determined using a compound top concentration=30,000 nM.
KD for each test compound was calculated with a standard dose-response curve using the Hill equation (equation (1)): […]
The Hill Slope was set to −1.
Curves were fitted using a non-linear least square fit with the Levenberg-Marquardt algorithm.

[3] = target: human RIPK1 (Homo sapiens (Human), UniProt Q13546); experiment: KINOMEscan binding assay, human RIPK1; settings: equilibrium dissociation constant
In short: as §1

[4] = target: human RIPK3 (Homo sapiens (Human), UniProt Q9Y572); experiment: KINOMEscan binding assay, human RIPK3; settings: equilibrium dissociation constant
In short: as §1

[5] = test system: U937 human histiocytic leukemia cell line; experiment: Inhibition of TSQ induced necroptosis in U937 cells (CellTitre-Glo); settings: 48 hours, read-out: Inhibition of TSQ-induced necroptosis (IC50 cell-based assay)
In short: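 Necroptosis was induced with TNF-Fc (100 ng/ml), Smac mimetic (500 nM) and Q-VD-OPh (10 μM) in 20000 U937 cells/well exposed to a 10-point, 3-fold compound series (top 36 μM, 0.3% DMSO). ATP luminescence read after 48 h; 4-parameter fit gave IC50. Parallel TSQ-free wells assessed compound toxicity.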

[6] = test system: U937 cells; experiment: Counter screen: U937 cell viability without TSQ cocktail (off-target effect); set-up: species or system human; settings: read-out: Off-target effect (IC50 cell-based assay)
In short: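 Off-target viability counter screen: compounds titrated 36 μM down 1:3 over 10 points (0.3% DMSO) on 20,000 U937 cells/well, no TNF/Smac mimetic/Q-VD-OPh added, 48 h incubation. ATP-based CellTiter-Glo luminescence, four-parameter logistic IC50.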

[7] = test system: Immortalised Mouse Dermal Fibroblasts (MDFs); experiment: Inhibition of TSI induced necroptosis in mouse dermal fibroblasts (CellTitre-Glo); settings: MDF cells, TSI cocktail (TNF, Smac mimetic, IDN-6556), read-out: Inhibition of TSI-induced necroptosis (IC50 cell-based assay) in MDF
Method: Cellular Assay: Screening Compounds for Inhibition of TSI Induced Necroptosis in, 384 well plate format. • Cell Line ID: Immortalised Mouse Dermal Fibroblasts (MDFs). • Cell Concentration (cells/well): Final cell density is 2200 cells per well. • Cell growth medium: DMEM medium+7.4% Fetal Bovine Serum (FBS). Cells are cultured in Corning 150 cm^2 tissue culture flasks with vented caps at 37° C./10% CO2. • Incubation: Plates were incubated for 30 minutes following addition of compounds and then 3 hours incubation with death stimuli (TSI cocktail) at 37° C./10% CO2 in a humidified incubator. • Compound concentration: 36 μM starting concentration, 1:3 dilution, 10 point • DMSO final concentration (% v/v): 0.3%. Compounds in TSI Cocktail (T: TNF; S: Smac Mimetic; I: IDN-6556) and their Final Concentrations: • rhTNF (100 ng/ml) • Compound A (500 nM)—Smac mimetic, Tetralogic and SYNthesis med chem • IDN-6556 (10 μM)—Selleckchem (S7775)
The cellular assay was carried out according to the following steps: • 1. Each well was prepared by sequential addition of: • a. 40 μL of cell suspension (5.5×10^4 cells/mL) was added to each well to provide a final cell concentration of 2,200 cells per well. • b. After 24 hours, DMSO (control; columns 1-2 and 23-24) or compound in DMSO—addition was performed using acoustic transfer of nL volumes of stock compound to give final test concentrations of 36, 12, 4, 1.3, 0.44, 0.148, 0.049, 0.016, 0.005 and 0.002 μM. All wells were backfilled with DMSO to a final total volume in the well of 100 nL. • c. Following compound/DMSO addition in step (b), Plates were incubated for 30 minutes at 37° C./10% CO2 in a humidified incubator and then 10 μL of 5×TSI cocktail (except to positive controls; columns 2 and 24) was added to each well. • 2. After 3 hours, plate was removed from the 37° C. incubator and equilibrated to room temperature for 15 minutes. • 3. 15 μL of room temperature CellTitre-Glo2™ (Promega™) was added to each well. • 4. Shook plates for 2 minutes (˜600 rpm) and incubated at room temperature for 15 minutes to allow signal to stabilise. • 5. Read luminescence readout on a plate reader.
Percent viability was calculated for each compound according to equation (2): […]
10 point titration curves were fitted with the 4 parameter logistic nonlinear regression model and the IC50 reported reflect the inflection point of the curve for curve fitting.
• Assay involving the TSI cocktail (T: TNF; S: Smac mimetic; I: IDN-6556): TSI treatment ensures that cells specifically undergo necroptotic cell death. TNF activates the TNF receptor, Smac mimetic directs the signal away from proinflammatory signaling and toward the RIPK1/RIPK3-mediated cell death pathways, and IDN-6556 (Caspase inhibitor) ensures that the apoptotic response is blocked leaving only the programmed necrosis response. The compounds' activity (solution in DMSO) tested in this TSI-induced assay was evaluated by determining the number of viable cells in culture by measuring the amount of ATP present as measured by CelltiterGlo.

[8] = Homo sapiens, U-937, TSQ cocktail (TNF, Smac mimetic, Q-VD-OPh)
[9] = Homo sapiens, U-937, compound without TSQ cocktail
[10] = TSQ cocktail (TNF, Smac mimetic, Q-VD-OPh)

Sequence of human RIPK3 (Q9Y572 whole entry): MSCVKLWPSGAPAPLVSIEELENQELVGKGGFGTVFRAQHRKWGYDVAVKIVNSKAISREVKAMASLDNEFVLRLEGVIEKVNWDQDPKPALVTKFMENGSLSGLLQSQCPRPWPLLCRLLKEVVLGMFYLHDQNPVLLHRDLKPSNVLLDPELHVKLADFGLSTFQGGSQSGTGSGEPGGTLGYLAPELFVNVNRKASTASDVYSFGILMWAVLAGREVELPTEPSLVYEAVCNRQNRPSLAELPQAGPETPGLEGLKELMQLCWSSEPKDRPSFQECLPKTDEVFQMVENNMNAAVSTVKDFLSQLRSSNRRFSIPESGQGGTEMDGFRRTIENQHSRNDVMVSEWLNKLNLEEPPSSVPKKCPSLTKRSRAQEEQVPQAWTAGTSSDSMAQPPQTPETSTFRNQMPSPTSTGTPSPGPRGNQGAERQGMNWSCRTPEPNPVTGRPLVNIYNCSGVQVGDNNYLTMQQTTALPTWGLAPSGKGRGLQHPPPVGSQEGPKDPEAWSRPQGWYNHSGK
Sequence of human RIPK1 (Q13546 whole entry): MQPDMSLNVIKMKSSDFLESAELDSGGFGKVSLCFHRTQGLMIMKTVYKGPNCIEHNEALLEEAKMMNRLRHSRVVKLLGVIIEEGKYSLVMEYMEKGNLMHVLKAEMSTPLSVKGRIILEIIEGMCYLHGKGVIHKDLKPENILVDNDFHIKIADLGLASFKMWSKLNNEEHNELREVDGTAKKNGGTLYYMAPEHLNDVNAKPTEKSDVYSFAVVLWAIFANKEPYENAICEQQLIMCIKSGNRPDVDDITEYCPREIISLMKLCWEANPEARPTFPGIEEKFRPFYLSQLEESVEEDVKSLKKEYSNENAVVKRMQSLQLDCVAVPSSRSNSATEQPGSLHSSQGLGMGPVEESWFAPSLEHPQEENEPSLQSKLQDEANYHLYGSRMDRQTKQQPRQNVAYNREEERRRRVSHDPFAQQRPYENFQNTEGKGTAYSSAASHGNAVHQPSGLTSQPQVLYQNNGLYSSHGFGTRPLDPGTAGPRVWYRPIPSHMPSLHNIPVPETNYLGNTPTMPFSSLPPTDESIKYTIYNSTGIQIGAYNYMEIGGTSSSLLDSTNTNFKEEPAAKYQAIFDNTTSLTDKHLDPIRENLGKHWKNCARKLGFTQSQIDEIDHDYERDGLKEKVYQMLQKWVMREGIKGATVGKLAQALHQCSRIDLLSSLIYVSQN
Sequence of mouse MLKL (full length) (Q9D2Y4 whole entry): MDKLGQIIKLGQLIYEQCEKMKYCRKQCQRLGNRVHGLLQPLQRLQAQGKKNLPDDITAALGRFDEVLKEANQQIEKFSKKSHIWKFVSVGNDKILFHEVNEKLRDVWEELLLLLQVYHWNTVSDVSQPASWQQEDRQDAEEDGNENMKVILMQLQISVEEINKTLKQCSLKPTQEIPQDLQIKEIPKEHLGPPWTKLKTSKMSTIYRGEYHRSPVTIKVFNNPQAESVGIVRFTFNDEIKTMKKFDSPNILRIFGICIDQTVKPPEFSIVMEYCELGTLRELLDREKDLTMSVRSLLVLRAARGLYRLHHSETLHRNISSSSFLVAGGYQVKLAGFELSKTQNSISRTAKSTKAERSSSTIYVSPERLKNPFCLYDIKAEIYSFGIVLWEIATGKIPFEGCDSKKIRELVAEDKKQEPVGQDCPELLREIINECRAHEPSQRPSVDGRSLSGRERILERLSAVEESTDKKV
Sequence of human MLKL (full length) (Q8NB16 whole entry, the tested form may be a part): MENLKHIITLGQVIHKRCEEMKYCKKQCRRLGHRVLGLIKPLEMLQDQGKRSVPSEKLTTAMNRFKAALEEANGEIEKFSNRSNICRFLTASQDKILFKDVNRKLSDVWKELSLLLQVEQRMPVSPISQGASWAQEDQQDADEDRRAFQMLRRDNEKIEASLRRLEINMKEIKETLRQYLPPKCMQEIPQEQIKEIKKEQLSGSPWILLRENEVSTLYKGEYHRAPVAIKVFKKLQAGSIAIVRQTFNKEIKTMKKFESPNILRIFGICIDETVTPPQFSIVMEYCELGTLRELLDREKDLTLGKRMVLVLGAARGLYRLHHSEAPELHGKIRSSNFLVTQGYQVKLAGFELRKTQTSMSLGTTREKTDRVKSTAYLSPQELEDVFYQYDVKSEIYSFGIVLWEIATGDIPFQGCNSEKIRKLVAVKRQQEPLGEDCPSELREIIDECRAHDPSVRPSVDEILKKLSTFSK

Kd [1] [nM]	Kd [2] [nM]	Kd [3] [nM]	Kd [4] [nM]	SMILES	IC50 [5, 8] [nM]	IC50 [6, 9] [nM]	IC50 ([7]; Mus musculus, Fibroblast, 3 h) [nM]	IC50 [5, 10] [nM]	IC50 ([6]; compound without TSQ cocktail) [nM]	IC50 ([7]; 3 hours) [nM]
< 1	< 1	> 10000	> 10000	Nc1ncc(-c2cnn(C3CCOCC3)c2)c2occ(-c3ccc(NS(=O)(=O)C(F)F)c(OCc4ccc(F)cc4)c3)c12 [Compound 5, N-(4-(4-amino-7-(1-(tetrahydro-2H-pyran-4-yl)-1H-pyrazol-4-yl)furo[3,2-c]pyridin-3-yl)-2-((4-fluorobenzyl)oxy)phenyl)-1,1-difluoromethanesulfonamide]	–	–	–	–	–	–
< 1	1 to 100	> 10000	> 10000	Nc1n[nH]c2nccc(-c3ccc(NS(=O)(=O)C(F)F)c(OCc4ccc(F)cc4)c3)c12 [Compound 66, N-(4-(3-Amino-1H-pyrazolo[3,4-b]pyridin-4-yl)-2-((4-fluorophenyl)methoxy)phenyl)-1,1-difluoromethanesulfonamide]	–	–	–	–	–	–
< 1	1 to 100	> 10000	> 10000	Nc1n[nH]c2ncnc(-c3ccc(NS(=O)(=O)C(F)F)c(OCc4ccc(F)cc4)c3)c12 [Compound 69, N-(4-(3-Amino-1H-pyrazolo[3,4-d]pyrimidin-4-yl)-2-((4-fluorophenyl)methoxy)phenyl)-1,1-difluoromethanesulfonamide]	–	–	–	–	–	–
< 1	1 to 100	> 10000	> 10000	Cc1cc(-c2ccc(NS(=O)(=O)C(F)F)c(OCc3ccc(F)cc3)c2)c2c(N)n[nH]c2n1 [Compound 70, N-(4-(3-Amino-6-methyl-1H-pyrazolo[3,4-b]pyridin-4-yl)-2-((4-fluorophenyl)methoxy)phenyl)-1,1-difluoromethanesulfonamide]	–	–	–	–	–	–
< 1	< 1	> 10000	> 10000	C[C@H](Oc1cc(-c2coc3c(-c4cnn(C)c4)cnc(N)c23)ccc1NS(=O)(=O)C(F)F)c1ccc(F)cc1 [Compound 8, (S)-N-(4-(4-amino-7-(1-methyl-1H-pyrazol-4-yl)furo[3,2-c]pyridin-3-yl)-2-(1-(4-fluorophenyl)ethoxy)phenyl)-1,1-difluoromethanesulfonamide]	–	–	–	–	–	–

More lines, now with the values behind:

SMILES	Kd [1] [nM]	Kd [2] [nM]	Kd [3] [nM]	Kd [4] [nM]	IC50 [5, 8] [nM]	IC50 [6, 9] [nM]	IC50 ([7]; Mus musculus, Fibroblast, 3 h) [nM]	IC50 [5, 10] [nM]	IC50 ([6]; compound without TSQ cocktail) [nM]	IC50 ([7]; 3 hours) [nM]
C[C@H](Oc1cc(-c2coc3c(-c4cnn(CCO)c4)cnc(N)c23)ccc1NS(=O)(=O)C(F)F)c1ccc(F)cc1 [Compound 9, (S)-N-(4-(4-amino-7-(1-(2-hydroxyethyl)-1H-pyrazol-4-yl)furo[3,2-c]pyridin-3-yl)-2-(1-(4-fluorophenyl)ethoxy)phenyl)-1,1-difluoromethanesulfonamide]	< 1	1 to 100	> 10000	> 10000	10 to 1000	1000 to 10000	–	–	–	–
C[C@H](Oc1cc(-c2nn(C)c3c(-c4cnn(C5CCOCC5)c4)cnc(N)c23)ccc1NS(=O)(=O)C(F)F)c1ccc(Cl)cc1 [Compound 137, (S)-N-(4-(4-amino-1-methyl-7-(1-(tetrahydro-2H-pyran-4-yl)-1H-pyrazol-4-yl)-1H-pyrazolo[4,3-c]pyridin-3-yl)-2-(1-(4-chlorophenyl)ethoxy)phenyl)-1,1-difluoromethanesulfonamide]	–	–	–	–	< 10	> 10000	1000 to 10000	–	–	–
C[C@H](Oc1cc(-c2nn(C)c3c(-c4cnn(C5CCN(C)C(C(F)F)C5)c4)cnc(N)c23)ccc1NS(=O)(=O)C(F)F)c1ccc(F)cc1 (stereo partly drawn) [Compound 158, N-(4-(4-amino-7-(1-(2-(difluoromethyl)-1-methylpiperidin-4-yl)-1H-pyrazol-4-yl)-1-methyl-1H-pyrazolo[4,3-c]pyridin-3-yl)-2-((S)-1-(4-fluorophenyl)ethoxy)phenyl)-1,1-difluoromethanesulfonamide]	1 to 100	–	–	–	< 10	> 10000	< 100	–	–	–
C[C@H](Oc1cc(-c2nn(C)c3c(-c4cnn(C5CCN(C)C(C)(C)C5)c4)cnc(N)c23)ccc1NS(=O)(=O)C(F)F)c1ccc(F)cc1 (single isomer, unassigned) [Compound 155, N-(4-(4-amino-1-methyl-7-(1-((S*)-1,2,2-trimethylpiperidin-4-yl)-1H-pyrazol-4-yl)-1H-pyrazolo[4,3-c]pyridin-3-yl)-2-((S)-1-(4-fluorophenyl)ethoxy)phenyl)-1,1-difluoromethanesulfonamide]	1 to 100	–	> 10000	> 10000	–	–	–	< 10	> 10000	100 to 1000
C[C@H](Oc1cc(-c2nn(C)c3c(-c4cnn(C5CCN(C)C6(CC6)C5)c4)cnc(N)c23)ccc1NS(=O)(=O)C(F)F)c1ccc(F)cc1 (single isomer, unassigned) [Compound 171, N-(4-(4-amino-1-methyl-7-(1-((R*)-4-methyl-4-azaspiro[2.5]octan-7-yl)-1H-pyrazol-4-yl)-1H-pyrazolo[4,3-c]pyridin-3-yl)-2-((S)-1-(4-fluorophenyl)ethoxy)phenyl)-1,1-difluoromethanesulfonamide]	1 to 100	–	> 10000	> 10000	–	–	–	10 to 1000	> 10000	< 100
